Patent publication US20050227266A1, “Biomarker:compound correlations in cancer diagnosis and therapy” (priority 2004, published 2005)

Tested on: NCI60 cell lines
Details: not told
Description: Compounds are tested according to a standard protocol (dtp.nci.nih.gov/branches/btb/ivclsp.html, reproduced as Appendix B), and GI50 data (i.e., data indicating the concentration of a compound that inhibits growth of a particular cell line by 50% after 48 hours of exposure) for many compounds, including a set of 171 so-called Standard Agents (dtp.nci.nih.gov/docs/cancer/searches/standard_agent.html, reproduced as Appendix C) are made publicly available.
Inventive biomarker:compound correlations are established by comparing the expression/activity expression and compound toxicity datasets. […] Such comparisons can quantify the association between the variables, e.g., using a Pearson or Spearman correlation. […] For example, to aid in the identification of non-linear relationships between compound toxicity and presence of a biomarker (e.g., a threshold response), values above or below a certain limit may be given a common value, or weighted, before the comparison is measured.
The present inventors established a gene expression profile for each of the 59 publicly-available NCI60 cell lines. […] Specifically, cDNAs that were detectable in fewer than 80% of the cell lines were discarded; approximately 17,000 unique genes were left whose measurements were recorded. […]

CC(=O)O[C@H]1C(=O)[C@@]2(C)[C@H]([C@H](OC(=O)c3ccccc3)[C@]3(O)C[C@H](OC(=O)[C@H](O)[C@@H](NC(=O)c4ccccc4)c4ccccc4)C(C)=C1C3(C)C)[C@]1(OC(C)=O)CO[C@@H]1C[C@@H]2O [Paclitaxol]
correlation of toxicity pattern with ABCB1 (PGP) gene expression: highest negative correlation
